Test results reported in PMC13343842, “The accessory protein CvnF8 modulates histidine kinase activity in an actinobacterial G protein system in Streptomyces coelicolor” (mBio, 2026).

Biological target: T1, CvnA8 (Streptomyces coelicolor, UniProt Q9KYJ8, H183A)
T1 construct: truncated, two N-terminal transmembrane helices removed; printed as 'nucleotides 55–518' (probably residues 55-518); N-terminal 3x Strep tag kept; E. coli BL21(DE3); Strep-Tactin XT and SEC
Experiment: Kinase-Glo Plus luminescence ATP consumption, Michaelis-Menten fit
Assay type: biochemical
Conditions: 1.5 µM CvnA8 H183A, 25 mM Tris pH 8.0, 150 mM NaCl, 100 mM MgCl2, 37 °C; 0-300 µM ATP

T1 sequence (Q9KYJ8 entry or part of it H183A): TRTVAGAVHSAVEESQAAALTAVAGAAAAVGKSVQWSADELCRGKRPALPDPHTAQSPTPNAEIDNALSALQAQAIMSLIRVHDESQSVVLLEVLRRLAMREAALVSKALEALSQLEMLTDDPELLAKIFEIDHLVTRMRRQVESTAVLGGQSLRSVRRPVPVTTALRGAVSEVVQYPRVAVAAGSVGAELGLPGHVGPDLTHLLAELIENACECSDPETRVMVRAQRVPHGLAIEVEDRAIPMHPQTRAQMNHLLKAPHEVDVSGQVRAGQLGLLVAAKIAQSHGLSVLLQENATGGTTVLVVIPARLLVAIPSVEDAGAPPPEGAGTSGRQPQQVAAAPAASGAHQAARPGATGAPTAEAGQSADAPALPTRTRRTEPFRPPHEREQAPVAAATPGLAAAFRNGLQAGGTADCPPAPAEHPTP

Nc1ncnc2c1ncn2[C@@H]1O[C@H](COP(=O)(O)OP(=O)(O)OP(=O)(O)O)[C@@H](O)[C@H]1O [ATP]
Kinase-Glo Plus luminescence ATP consumption, Michaelis-Menten fit: drastically reduced in the H183A mutant, which prohibited the calculation of a nominal kcat
